In patent US9789046B2, “Water-based resin nail polish” (LES FINS NETWORK TECHNOLOGY CO., LTD., priority 2015, dated 2017):
Converted amounts (≈) assume the structure as drawn.

How the values were obtained:
Assay in all cases: Antifungal activity experiment, 96-pore plate, MTT, OD 570 nm
Format in all cases: cell-based
Conditions in all cases: MH medium, 37° C., 24 h, read-out: semi-inhibition rate MIC50
Trichophyton rubrum = tested on: Trichophyton rubrum
Procedure: (§1) Bacteria (Trichophyton rubrum, Trichophyton gypsum and flocculent trichomementagrophytes) are suspended in an MH culture medium, the dispersion concentration is about 10^5 cfu·mL−1, the bacterial solution is added onto 96-pore plate (100 μL of the bacterial solution is added into each pore), the culture medium is used as a blank control, DMSO is used for substituting a test material as a negative control, and itraconazole (Xian-Janssen Pharmaceutical Ltd.) is used as a positive control. […] The 96-pore plate is placed into an incubator at 37° C. to be cultured for 24 h, then 25 μL of the prepared solution containing 4 mg of PBS of MTT for each mL is added into each hole, and the solution is cultured for 4 h under a same condition, 100 μL of SDS lysis solution (including 95 mL of triple-distilled, 10 g of SDS, 5 mL of isopropyl alcohol and 0.1 mL of concentrated hydrochloric acid) is added into each pore and then is cultured for 12 h. An enzyme labeling instrument is used for determining an OD value at 570 nm, and a percent inhibition rate is calculated according to the formula equation: […]

[1] = tested on: flocculent trichomementagrophytes
Procedure: as §1

Trichophyton gypsum = tested on: Trichophyton gypsum
Procedure: as §1

MIC50 (Trichophyton rubrum) [µg/mL] | MIC50 [1] [µg/mL] | MIC50 (Trichophyton gypsum) [µg/mL] | SMILES
0.63 (≈ 0.893 µM) | 0.65 (≈ 0.921 µM) | 0.7 (≈ 0.992 µM) | CCC(C)n1ncn(-c2ccc(N3CCN(c4ccc(OCC5COC(Cn6cncn6)(c6ccc(Cl)cc6Cl)O5)cc4)CC3)cc2)c1=O (stereo not drawn) [itraconazole]
0.63 | 0.82 | 0.6 | COc1ccc(-c2cc(=O)c3cc(O)c(OC)c4c3n2OC2OC(C)=C(O)C=C2C4)cc1 (stereo not drawn) [compound of formula I]
